Assays:
[1] = system: 40 human kinases and 14 human membrane receptors; test: Screening against kinases and membrane receptors
[2] = system: THP-1; test: Luminescent ATP-based cytotoxicity assay; format: cell-based, human; conditions: THP-1 (MLL/AF9)
[3] = mouse; cited from earlier work
[4] = system: REH; test: Luminescent ATP-based cytotoxicity assay; format: cell-based, human
[5] = system: NALM-17; test: Luminescent ATP-based cytotoxicity assay; format: cell-based, human
[6] = system: 38 protein kinases; test: Screening against protein kinases; format: biochemical
[7] = system: NOMO-1; test: Luminescent ATP-based cytotoxicity assay; format: cell-based, human; conditions: NOMO-1 (MLL/AF9)
[8] = system: KASUMI-1; test: Luminescent ATP-based cytotoxicity assay; format: cell-based, human; conditions: KASUMI-1 (AML1-ETO)
[9] = system: HOXA9 mRNA in MV4;11 cells; test: qRT-PCR of HOXA9 levels; format: cell-based, human
[10] = system: K-562 cells; test: Western blot analysis of treated cells; format: cell-based, human
[11] = molecular target: BRD2(1) (Homo sapiens, UniProt P25440); test: Bio-Layer Interferometry; format: binding; conditions: read-out: affinity
Sequence of BRD2(1) (P25440 71-194 limits assumed): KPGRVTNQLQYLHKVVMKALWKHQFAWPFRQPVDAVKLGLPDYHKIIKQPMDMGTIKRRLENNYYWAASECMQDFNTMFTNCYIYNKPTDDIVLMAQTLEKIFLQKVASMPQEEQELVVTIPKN

[12] = molecular target: T1, CBP (Homo sapiens, UniProt Q92793); test: ALPHA screen; format: binding
[13] = system: MV4;11; test: Clonogenic growth in methylcellulose; format: cell-based, human
[14] = system: THP-1; test: Clonogenic growth in methylcellulose; format: cell-based, human
[15] = system: MV4;11 cells
[16] = system: K-562; test: Cell cycle analysis by flow cytometry; format: cell-based, human
[17] = system: MV4;11; test: Luminescent ATP-based cytotoxicity assay; format: cell-based, human; conditions: MV4;11 (MLL/AF4)
[18] = system: SEMKH2; test: Luminescent ATP-based cytotoxicity assay; format: cell-based, human; conditions: SEMKH2 (MLL/AF9)
[19] = system: K-562; test: Luminescent ATP-based cytotoxicity assay; format: cell-based, human
[20] = molecular target: T1, CBP; format: binding; conditions: read-out: affinity; Bio-Layer Interferometry, estimated
[21] = system: BRD4 binding to the HOXA9 promoter; test: Chromatin immunoprecipitation; format: cell-based, human; conditions: ChIP
[22] = system: murine MLL-AF9 leukaemic blasts; test: Differentiation of leukaemic blasts; format: cell-based; conditions: into cells with polymorphonuclear neutrophil like appearances
[23] = system: CD34 positive human haematopoietic stem cells; test: Clonogenic growth in methylcellulose; format: cell-based; conditions: two different healthy donors
[24] = system: SUPB-15; test: Luminescent ATP-based cytotoxicity assay; format: cell-based, human
[25] = molecular target: BRD2(2) (Homo sapiens, UniProt P25440); test: ALPHA screen, acetylated histone 4 peptide displacement; format: binding; conditions: read-out: potency (IC50); displacement of H4K5acK8acK12acK16ac peptide
Sequence of BRD2(2) (P25440 344-455 limits assumed): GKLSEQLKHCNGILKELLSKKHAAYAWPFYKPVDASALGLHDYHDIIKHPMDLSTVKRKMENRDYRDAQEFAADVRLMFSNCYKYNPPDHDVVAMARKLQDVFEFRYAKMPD

[26] = system: MV4;11; test: Cell cycle analysis by flow cytometry; format: cell-based, human
[27] = system: MV4;11 cells; remark: listed apart in the source
[28] = system: RS4;11; test: Luminescent ATP-based cytotoxicity assay; format: cell-based, human; conditions: RS4;11 (MLL/AF4)
[29] = system: K562; test: Clonogenic growth in methylcellulose; format: cell-based, human
[30] = system: Aurora-B; conditions: ref [34]–[37]; cited from earlier work
[31] = system: K-562 cells; test: Cytotoxicity of BET inhibitor and VX-680 combinations; format: cell-based, human; conditions: data not shown
[32] = system: tested cell lines
[33] = system: Aurora-A; conditions: ref [34]–[37]; cited from earlier work
[34] = system: Aurora-C; conditions: ref [34]–[37]; cited from earlier work

COc1ccccc1S(=O)(=O)Nc1ccc2c(c1)CN(C)C(=O)N2 [PFI-1]
activity [1]: no significant activity | GI50 [2]: 4000 ± 2000 nM | necessary effective dose in vivo [3]: cannot be obtained in vivo | GI50 [4]: 9000 ± 4000 nM | GI50 [5]: 8000 ± 4000 nM | inhibitory activity [6]: no significant inhibitory activity | GI50 [7]: 3000 ± 3000 nM | GI50 [8]: 800 ± 1000 nM | HOXA9 mRNA ([9]; after 4 h): up-regulated | HOXA9 mRNA ([9]; incubation times of 8 h and 24 h): strongly down-regulated | PARP1 and pro-caspase 7 cleavage [10]: neither PARP1 nor pro-caspase 7 cleavage was observed | c-Myc levels [10]: only a minor reduction | Kd [11]: 111 nM | IC50 [12]: too weak for determination of an accurate IC50 value | clonogenic growth [13]: strong ablation of clonogenic growth | clonogenic growth [14]: strong ablation of clonogenic growth | c-Myc protein levels [15]: significantly lower | Aurora B protein levels ([15]; 8 h exposure): significant reduction | PARP1 and pro-caspase 7 cleavage ([15]; 24 h exposure): strong induction | protein levels and phosphorylation state of BAD ([15]; 24 h exposure): unaffected | cell cycle [16]: not affected | GI50 [17]: 1500 ± 1000 nM | GI50 [18]: 2000 ± 2000 nM | activity (growth inhibition) [19]: No significant activity | Kd [20]: ~11000 nM | BRD4 occupancy of the HOXA9 promoter region [21]: displace BRD4 from the HOXA9 promoter region | differentiation [22]: rapid differentiation | clonogenic growth [23]: significantly impaired | GI50 [24]: 11000 ± 4000 nM | IC50 [25]: 98 nM | cell cycle [26]: G1/S arrest | toxicity in combination with VX-680 [27]: strong cancer cell toxicity | GI50 [28]: 2000 ± 2000 nM | cell numbers in clonogenic growth assay [29]: significantly reduce cell numbers | colony formation [29]: not affected

Cc1cc(Nc2cc(N3CCN(C)CC3)nc(Sc3ccc(NC(=O)C4CC4)cc3)n2)[nH]n1 [VX-680]
potency [30]: 18 nM | synergy with BET inhibitors [31]: No synergy | concentrations at which apoptosis was observed [32]: […] | inhibitor concentration causing cell cycle arrest in G2/M phase [32]: […] | potency [33]: […] | potency [34]: 4.6 nM | optimal concentration of VX-680 in combination [27]: […]

From paper PMC3673830 (Cancer research, 2013)
